Values of other authors in paper PMC7904743, “WIDOCK: a reactive docking protocol for virtual screening of covalent inhibitors” (Journal of Computer-Aided Molecular Design, 2021).
Read-outs that look alike come from different tables or passages of the source.

Legend:
[1] = system: OTUB2; settings: OTUB2 protein labeling; experimental actives if % labeling higher than 50%; cited from earlier work
[2] = thiol reactivity, cited from earlier work
[3] = system: NUDT7; settings: protein labeling at 200 μM; experimental actives if % labeling higher than 50%; cited from earlier work
[4] = natural log of average kinetic rate constant
[5] = natural log of average rate constant

| Compound | OTUB2 % labeling [1] [%] | ln(avg k) [2, 4] | ln(avg k) [2, 5] | NUDT7 % labeling [3] [%] |
| --- | --- | --- | --- | --- |
| CC1CCN(C(=O)CCl)C2CCCCC12 (stereo not shown) [PCM-0102831, CC1CCN(C(=O)CCl)C2CCCCC12] | 0 | -15.612 | -15.612 | 37 |
| O=C(CCl)N(C1CC1)C1CCS(=O)(=O)C1 (stereo not shown) [PCM-0102832, O=C(CCl)N(C1CC1)C1CCS(=O)(=O)C1] | 43 | -16.200 | -16.200 | 0 |
| CC(C)(C)N(Cc1cccc(F)c1)C(=O)CCl [PCM-0102833, CC(C)(C)N(Cc1cccc(F)c1)C(=O)CCl] | 0 | -16.964 | -16.964 | 0 |
| O=C(CCl)N1CCN(S(=O)(=O)c2ccc3ccccc3c2)CC1 [PCM-0102836, O=C(CCl)N1CCN(S(=O)(=O)c2ccc3ccccc3c2)CC1] | 0 | -15.169 | -15.169 | 0 |
| O=C(CCl)N1CCN(S(=O)(=O)c2ccccc2Cl)CC1 [PCM-0102837, O=C(CCl)N1CCN(S(=O)(=O)c2ccccc2Cl)CC1] | 0 | -15.224 | -15.224 | 18 |
| CC(=O)c1sc(NC(=O)CCl)nc1C [PCM-0102838, CC(=O)c1sc(NC(=O)CCl)nc1C] | 0 | -16.064 | -16.064 | 12 |
| COC(=O)C1Cc2ccccc2CN1C(=O)CCl (stereo not shown) [PCM-0102841, COC(=O)C1Cc2ccccc2CN1C(=O)CCl] | 41 | -14.128 | -14.128 | 19 |
| O=C(CCl)Nc1ccc([N+](=O)[O-])cc1Br [PCM-0102848, O=C(CCl)Nc1ccc([N+](=O)[O-])cc1Br] | 0 | -16.062 | -16.062 | 24 |
| CC(C)(C)CCNC(=O)CCl [PCM-0102853, CC(C)(C)CCNC(=O)CCl] | 0 | -17.028 | -17.028 | 0 |
| N#CC1(NC(=O)CCl)CCC1 [PCM-0102854, N#CC1(NC(=O)CCl)CCC1] | 0 | -16.080 | -16.080 | 9 |
| CC(C)(C)C(=O)NNC(=O)CCl [PCM-0102855, CC(C)(C)C(=O)NNC(=O)CCl] | 0 | -17.593 | -17.593 | 7 |
| N#Cc1cccc(C(=O)NNC(=O)CCl)c1 [PCM-0102857, N#Cc1cccc(C(=O)NNC(=O)CCl)c1] | 41 | -16.900 | -16.900 | 0 |
| Cc1ccc(S(C)(=O)=O)cc1NC(=O)CCl [PCM-0102858, Cc1ccc(S(C)(=O)=O)cc1NC(=O)CCl] | 0 | -16.253 | -16.253 | 0 |
| CCOC(=O)N1CCN(C(=O)CCl)CC1 [PCM-0102861, CCOC(=O)N1CCN(C(=O)CCl)CC1] | 0 | -17.162 | -17.162 | 0 |
| O=C(CCl)NC1CCCC(C(F)(F)F)C1 (stereo not shown) [PCM-0102862, O=C(CCl)NC1CCCC(C(F)(F)F)C1] | 14 | -16.578 | -16.578 | 0 |
| CN(Cc1ccsc1)C(=O)CCl [PCM-0102865, CN(Cc1ccsc1)C(=O)CCl] | 0 | -16.224 | -16.224 | 9 |

| Compound | OTUB2 % labeling [1] [%] | ln(avg k) [2, 4] | ln(avg k) [2, 5] | NUDT7 % labeling [3] [%] |
| --- | --- | --- | --- | --- |
| O=C(CCl)Nc1ccc2[nH]c(=O)[nH]c2c1 [PCM-0102866, O=C(CCl)Nc1ccc2[nH]c(=O)[nH]c2c1] | 30 | -15.702 | -15.702 | 0 |
| CC1CCCN(C(=O)CCl)C1 (stereo not shown) [PCM-0102867, CC1CCCN(C(=O)CCl)C1] | 0 | -16.989 | -16.989 | 0 |
| O=C(CCl)N(c1ccc(F)cc1)C1C=CS(=O)(=O)C1 (stereo not shown) [PCM-0102868, O=C(CCl)N(c1ccc(F)cc1)C1C=CS(=O)(=O)C1] | 0 | -15.576 | -15.576 | 34 |
| CN(C(=O)CCl)C1=CCCC1 [PCM-0102869, CN(C(=O)CCl)C1=CCCC1] | 0 | -17.213 | -17.213 | 0 |
| O=C(CCl)N1CCOCC1C1CC1 (stereo not shown) [PCM-0102870, O=C(CCl)N1CCOCC1C1CC1] | 0 | -15.541 | -15.541 | 17 |
| O=C(CCl)NC1CCOc2ccccc21 (stereo not shown) [PCM-0102871, O=C(CCl)NC1CCOc2ccccc21] | 44 | -16.366 | -16.366 | 0 |
| Cc1csc(NC(=O)CCl)n1 [PCM-0102872, Cc1csc(NC(=O)CCl)n1] | 0 | -15.785 | -15.785 | 16 |
| O=C(CCl)Nc1cc(F)cc(F)c1 [PCM-0102874, O=C(CCl)Nc1cc(F)cc(F)c1] | 0 | -15.799 | -15.799 | 18 |
| N#Cc1ccc(NC(=O)CCl)cc1 [PCM-0102875, N#Cc1ccc(NC(=O)CCl)cc1] | 8 | -15.678 | -15.678 | 14 |
| Cc1ccccc1CN1CCN(C(=O)CCl)CC1 [PCM-0102876, Cc1ccccc1CN1CCN(C(=O)CCl)CC1] | 0 | -15.594 | -15.594 | 0 |
| CN(C)C(=O)c1ccc(NC(=O)CCl)cc1 [PCM-0102877, CN(C)C(=O)c1ccc(NC(=O)CCl)cc1] | 0 | -15.682 | -15.682 | 0 |
| Cc1cc(C)c(C(C)NC(=O)CCl)cc1C (stereo not shown) [PCM-0102879, Cc1cc(C)c(C(C)NC(=O)CCl)cc1C] | 17 | -16.314 | -16.314 | 0 |
| COC(=O)C1CN(C(=O)CCl)c2ccccc2O1 (stereo not shown) [PCM-0102880, COC(=O)C1CN(C(=O)CCl)c2ccccc2O1] | 11 | -17.563 | -17.563 | 0 |
| O=C(CCl)NCC1COc2ccccc2O1 (stereo not shown) [PCM-0102881, O=C(CCl)NCC1COc2ccccc2O1] | 39 | -16.328 | -16.328 | 0 |
| C=CC(=O)NC(=O)Nc1ccccc1 [PCM-0102883, C=CC(=O)NC(=O)Nc1ccccc1] | 0 | -16.619 | -16.619 | 0 |
